In ChEMBL document CHEMBL1201862, “PubChem BioAssay data set” (2004):
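Interpolation was linear, between the two tested concentrations surrounding the appropriate level; five concentrations were tested over 48 hours in 96-well plates. GI50 marks 50% less growth.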 Calls of active or inactive are those of the source. Cut-off read from the data, not from the text of the source: active = GI50 up to about 1.1 µM and inactive = higher.

Key:
Assay in all cases: NCI tumour cell line growth inhibition, 48 h
KM-20L2 = tested on: KM-20L2
DMS-273 = tested on: DMS-273
M14 = tested on: M14
A549 = tested on: A549
UO-31 = tested on: UO-31
RXF 393 = tested on: RXF 393
HCT-116 = tested on: HCT-116
MOLT-4 = tested on: MOLT-4
UACC-62 = tested on: UACC-62
CCRF-CEM = tested on: CCRF-CEM
NCI-H460 = tested on: NCI-H460
SN12C = tested on: SN12C
HOP-62 = tested on: HOP-62
OVCAR-4 = tested on: OVCAR-4
KM12 = tested on: KM12
SK-OV-3 = tested on: SK-OV-3
M19-MEL = tested on: M19-MEL
SK-MEL-28 = tested on: SK-MEL-28
SW-620 = tested on: SW-620
NCI-H23 = tested on: NCI-H23
A498 = tested on: A498
SF-268 = tested on: SF-268
OVCAR-8 = tested on: OVCAR-8
ACHN = tested on: ACHN
COLO 205 = tested on: COLO 205
HL-60 = tested on: HL-60
HCT-15 = tested on: HCT-15
UACC-257 = tested on: UACC-257
SNB-78 = tested on: SNB-78
XF498 = tested on: XF498
NCI-H522 = tested on: NCI-H522
HCC 2998 = tested on: HCC 2998
SF-295 = tested on: SF-295
OVCAR-5 = tested on: OVCAR-5
LOX IMVI = tested on: LOX IMVI
SF-539 = tested on: SF-539
EKVX = tested on: EKVX
DLD-1 = tested on: DLD-1
OVCAR-3 = tested on: OVCAR-3
786-0 = tested on: 786-0
SNB-19 = tested on: SNB-19
NCI-H226 = tested on: NCI-H226
DMS-114 = tested on: DMS-114
TK-10 = tested on: TK-10
HOP-92 = tested on: HOP-92
U-251 = tested on: U-251
SK-MEL-5 = tested on: SK-MEL-5
RPMI-8226 = tested on: RPMI-8226
LXFL 529 = tested on: LXFL 529
IGROV-1 = tested on: IGROV-1
HT-29 = tested on: HT-29
SNB-75 = tested on: SNB-75
CAKI-1 = tested on: CAKI-1
HOP-18 = tested on: HOP-18
Malme-3M = tested on: Malme-3M
K562 = tested on: K562
SR = tested on: SR
SK-MEL-2 = tested on: SK-MEL-2

NC(=O)c1ccc(Cl)c([N+](=O)[O-])c1
GI50 (KM-20L2): > 100 µM (inactive)
GI50 (DMS-273): > 100 µM (inactive)
GI50 (M14): > 100 µM (inactive)
GI50 (A549): > 100 µM (inactive)
GI50 (UO-31): > 100 µM (inactive)
GI50 (RXF 393): > 100 µM (inactive)
GI50 (HCT-116): > 100 µM (inactive)
GI50 (MOLT-4): > 100 µM (inactive)
GI50 (UACC-62): > 100 µM (inactive)
GI50 (CCRF-CEM): > 100 µM (inactive)
GI50 (NCI-H460): > 100 µM (inactive)
GI50 (SN12C): > 100 µM (inactive)
GI50 (HOP-62): > 100 µM (inactive)
GI50 (OVCAR-4): > 100 µM (inactive)
GI50 (KM12): > 100 µM (inactive)
GI50 (SK-OV-3): > 100 µM (inactive)
GI50 (M19-MEL): > 100 µM (inactive)
GI50 (SK-MEL-28): > 100 µM (inactive)
GI50 (SW-620): > 100 µM (inactive)
GI50 (NCI-H23): > 100 µM (inactive)
GI50 (A498): > 100 µM (inactive)
GI50 (SF-268): > 100 µM (inactive)
GI50 (OVCAR-8): > 100 µM (inactive)
GI50 (ACHN): > 100 µM (inactive)
GI50 (COLO 205): > 100 µM (inactive)
GI50 (HL-60): > 100 µM (inactive)
GI50 (HCT-15): > 100 µM
GI50 (UACC-257): > 100 µM (inactive)
GI50 (SNB-78): > 100 µM (inactive)
GI50 (XF498): > 100 µM (inactive)
GI50 (NCI-H522): 48.9 µM (inactive)
GI50 (HCC 2998): > 100 µM (inactive)
GI50 (SF-295): > 100 µM (inactive)
GI50 (OVCAR-5): > 100 µM (inactive)
GI50 (LOX IMVI): > 100 µM (inactive)
GI50 (SF-539): > 100 µM (inactive)
GI50 (EKVX): > 100 µM (inactive)
GI50 (DLD-1): > 100 µM (inactive)
GI50 (OVCAR-3): > 100 µM (inactive)
GI50 (786-0): > 100 µM (inactive)
GI50 (SNB-19): > 100 µM (inactive)
GI50 (NCI-H226): > 100 µM (inactive)
GI50 (DMS-114): > 100 µM (inactive)
GI50 (TK-10): > 100 µM (inactive)
GI50 (HOP-92): > 100 µM (inactive)
GI50 (U-251): > 100 µM (inactive)
GI50 (SK-MEL-5): > 100 µM (inactive)
GI50 (RPMI-8226): > 10 µM (inactive)
GI50 (LXFL 529): > 100 µM (inactive)
GI50 (IGROV-1): > 100 µM (inactive)
GI50 (HT-29): > 100 µM (inactive)
GI50 (SNB-75): > 100 µM (inactive)
GI50 (CAKI-1): > 100 µM (inactive)
GI50 (HOP-18): > 100 µM (inactive)
GI50 (Malme-3M): > 100 µM (inactive)
GI50 (K562): > 100 µM (inactive)

CN1C(=O)CC(CC(=O)C2CCCCC2=O)CC1=O (stereo unspecified)
GI50 (KM-20L2): > 100 µM (inactive)
GI50 (DMS-273): > 100 µM (inactive)
GI50 (M14): > 100 µM (inactive)
GI50 (A549): > 100 µM (inactive)
GI50 (UO-31): > 100 µM (inactive)
GI50 (RXF 393): > 100 µM (inactive)
GI50 (HCT-116): > 100 µM (inactive)
GI50 (MOLT-4): > 100 µM (inactive)
GI50 (UACC-62): > 100 µM (inactive)
GI50 (CCRF-CEM): > 100 µM (inactive)
GI50 (NCI-H460): > 100 µM (inactive)
GI50 (SN12C): > 100 µM (inactive)
GI50 (HOP-62): > 100 µM (inactive)
GI50 (OVCAR-4): > 100 µM (inactive)
GI50 (KM12): > 100 µM (inactive)
GI50 (SK-OV-3): > 100 µM (inactive)
GI50 (M19-MEL): > 100 µM (inactive)
GI50 (SK-MEL-28): > 100 µM (inactive)
GI50 (SW-620): > 100 µM (inactive)
GI50 (NCI-H23): > 100 µM (inactive)
GI50 (A498): > 100 µM (inactive)
GI50 (SF-268): > 100 µM (inactive)
GI50 (OVCAR-8): > 100 µM (inactive)
GI50 (ACHN): > 100 µM (inactive)
GI50 (COLO 205): > 100 µM (inactive)
GI50 (HL-60): > 100 µM (inactive)
GI50 (UACC-257): > 100 µM (inactive)
GI50 (SNB-78): > 100 µM (inactive)
GI50 (XF498): > 100 µM (inactive)
GI50 (SR): > 100 µM (inactive)
GI50 (NCI-H522): > 100 µM (inactive)
GI50 (HCC 2998): > 100 µM (inactive)
GI50 (SF-295): > 100 µM (inactive)
GI50 (OVCAR-5): > 100 µM (inactive)
GI50 (LOX IMVI): > 100 µM (inactive)
GI50 (SF-539): > 100 µM (inactive)
GI50 (EKVX): > 100 µM (inactive)
GI50 (DLD-1): > 100 µM (inactive)
GI50 (OVCAR-3): > 100 µM (inactive)
GI50 (786-0): > 100 µM (inactive)
GI50 (SNB-19): > 100 µM (inactive)
GI50 (NCI-H226): > 100 µM (inactive)
GI50 (DMS-114): > 100 µM (inactive)
GI50 (TK-10): > 100 µM (inactive)
GI50 (HOP-92): > 100 µM (inactive)
GI50 (U-251): > 100 µM (inactive)
GI50 (RPMI-8226): > 100 µM (inactive)
GI50 (LXFL 529): > 100 µM (inactive)
GI50 (IGROV-1): > 100 µM (inactive)
GI50 (HT-29): > 100 µM (inactive)
GI50 (SNB-75): > 100 µM (inactive)
GI50 (CAKI-1): > 100 µM (inactive)
GI50 (HOP-18): > 100 µM (inactive)
GI50 (Malme-3M): > 100 µM (inactive)
GI50 (K562): > 100 µM (inactive)

Nc1nc(=O)[nH]c2c1cnn2COCCO
GI50 (KM-20L2): 2.33 µM (inactive)
GI50 (DMS-273): > 100 µM (inactive)
GI50 (SK-MEL-2): > 100 µM (inactive)
GI50 (M14): > 100 µM (inactive)
GI50 (A549): > 100 µM (inactive)
GI50 (UO-31): > 100 µM (inactive)
GI50 (RXF 393): 22.3 µM (inactive)
GI50 (HCT-116): > 100 µM (inactive)
GI50 (MOLT-4): > 100 µM (inactive)
GI50 (CCRF-CEM): > 100 µM (inactive)
GI50 (NCI-H460): > 100 µM (inactive)
GI50 (SN12C): > 100 µM (inactive)
GI50 (OVCAR-4): > 100 µM (inactive)
GI50 (KM12): > 100 µM (inactive)
GI50 (SK-MEL-28): 37.1 µM (inactive)
GI50 (SW-620): > 100 µM (inactive)
GI50 (NCI-H23): 17.3 µM (inactive)
GI50 (A498): > 100 µM (inactive)
GI50 (SF-268): > 100 µM (inactive)
GI50 (OVCAR-8): > 100 µM (inactive)
GI50 (ACHN): > 100 µM (inactive)
GI50 (COLO 205): > 100 µM (inactive)
GI50 (HL-60): > 100 µM (inactive)
GI50 (HCT-15): > 100 µM
GI50 (UACC-257): > 100 µM (inactive)
GI50 (SNB-78): 21.5 µM (inactive)
GI50 (XF498): > 100 µM (inactive)
GI50 (SR): > 100 µM (inactive)
GI50 (SF-295): > 100 µM (inactive)
GI50 (OVCAR-5): 11.3 µM (inactive)
GI50 (LOX IMVI): > 100 µM (inactive)
GI50 (SF-539): > 100 µM (inactive)
GI50 (EKVX): > 100 µM (inactive)
GI50 (DLD-1): > 100 µM (inactive)
GI50 (SNB-19): > 100 µM (inactive)
GI50 (NCI-H226): 0.281 µM (active)
GI50 (DMS-114): > 100 µM (inactive)
GI50 (TK-10): 20.7 µM (inactive)
GI50 (HOP-92): > 100 µM (inactive)
GI50 (U-251): 22.4 µM (inactive)
GI50 (SK-MEL-5): > 100 µM (inactive)
GI50 (RPMI-8226): > 100 µM (inactive)
GI50 (LXFL 529): > 100 µM (inactive)
GI50 (IGROV-1): > 100 µM (inactive)
GI50 (HT-29): > 100 µM (inactive)
GI50 (SNB-75): > 100 µM (inactive)
GI50 (CAKI-1): > 100 µM (inactive)
GI50 (HOP-18): > 100 µM (inactive)
GI50 (Malme-3M): > 100 µM (inactive)
GI50 (K562): > 100 µM (inactive)
